Entries after “also recorded” stand apart in the source; their conditions may differ.
Experiments:
[1] = system: verruca planae caused by HPV; experiment: Clinical treatment of verruca planae patients with methyltestosterone tablets; format: in vivo, human; details: for outcome at follow-up visit: 8 weeks later
[2] = system: condyloma acuminatum caused by HPV; experiment: Clinical treatment of condyloma acuminatum patients with methyltestosterone tablets after operation, laser or freezing; format: in vivo, human; details: for relapse of lesions: in 6 months
Method: The study protocol using methyltestosterone as a treatment for verruca planae and condyloma acuminatum caused by HPV includes:
Some of the patients were the relapsed ones after the treatment by transferor, interferon, and interleukins.
Methyltestosterone is a tablet, manufactured by Southwest Pharmaceutical Company and the Second Pharmaceutical Company of Chengdu, China. The dosage was 5 mg/tablet.
Methyltestosterone was administered orally, 1 tablet/time, three times/day, and 5 days consecutively, followed by 1 tablet/time, two times/day, for additional 5-10 days consecutively.
One of the following would be considered as cure: A) there were no new vegetations at or around the lesion for at least six months after administration of methyltestosterone for 10-15 days following treatment with physical, chemical, and operational therapies. B) the vegetations reappeared in two months after operations and were positive for the acetowhitening test, but regressed for at least 6 months after administration of methyltestosterone for 10-15 days.

[3] = of 96 cases with facial verruca planae
[4] = out of 7 cases with hand and neck verruca planae

## CC12CCC(=O)C=C1CCC1C2CCC2(C)C1CCC2(C)O (stereo not drawn) [methyltestosterone]
[1]; Case 1: facial verruca planae 2 years, 1 tablet twice daily for 3 days
  time to cure: 2 weeks
[1]; Case 2: facial verruca planae 1 year, 1 tablet twice daily for 3 days
  time until all lesions regressed: 4 weeks
[1]; Case 3: facial verruca planae 4 years, 1 tablet twice daily for 3 days
  time until all lesions regressed: 4 weeks
[1]; Case 4: facial verruca planae 13 years, 1 tablet twice daily for 5 days, in 6 weeks
  lesions regressed: 90%
[1]; Case 5: hand and neck verruca planae 10 years, 1 tablet twice daily for 10 days
  time until lesions on the face regressed: 2 months
[1]; Case 6: facial verruca planae 3 months, 1 tablet once daily for 5 days plus Vitamin B2, Vitamin B6 and brimstone lotion
  time to cure: 4 weeks
[1]; Case 7: facial verruca planae, 1 tablet twice daily for 5 days
  outcome at follow-up visit: cured
[1]; Case 8: facial verruca planae one year, 1 tablet once daily for 5 days
  outcome at follow-up visit: cured
[1]; Case 9: facial verruca planae relapsed after laser, 1 tablet three times daily for 5 days
  outcome of lesions: regressed mostly
[1]; Case 10: flat papules on forehead and blepharons, 1 tablet three times daily for 4 days
  time until papules regressed completely: 3 weeks
[1]; facial verruca planae, 96 cases
  non-responsive rate: 2%
[1]; facial verruca planae, 96 cases, 5 mg tablet hypoglossally, two or three times/day, 3-5 days, cure = all facial exanthems regressed
  cure rate: 88.5%
[1]; facial verruca planae, 96 cases, effective = 70% of exanthems disappeared
  effective rate: 9.4%
[1]; hand and neck verruca planae, 7 cases
  effective rate: 86%
[1]; [3]
  cases cured: 85 cases
  cases effective: 9 cases
  cases non-responsive to the medication: 2 cases
[1]; [4]
  cases cured: 1 cases
  cases regressed after 5 weeks following the treatment: 3 cases
  cases remaining non-responsive: 1 cases
[2]; 61 patients, methyltestosterone 10-15 days following operations, follow-up 6 months to 1 year
  relapse of condyloma acuminatum: None of the patients relapsed; also recorded: no relapse case; also recorded: no relapses occurred
[2]; Case 11: penis, laser, then 1 tablet three times daily 5 days and twice daily 5 days
  relapse of lesions: did not relapse
[2]; Case 12: anus, CO2 laser, then 1 tablet three times daily 5 days and twice daily 10 days
  relapse of lesions: did not relapse
[2]; Case 13: vulva and anus, CO2 laser, then 1 tablet three times daily 5 days and twice daily 5 days, in 4 weeks
  new vegetations: no new vegetations appearing
[2]; Case 14: anus, CO2 laser, then 1 tablet twice daily for 10 days, in a year
  relapse: No relapse occurred
[2]; Case 15: prepuce, CO2 laser, then 1 tablet three times daily for 10 days, wound healed in 4 weeks
  outcome of wound and vegetations: no scars left nor new vegetations growing
[2]; Case 16: after the methyltestosterone treatment
  time until wound healed with negative acetowhitening test: 6 weeks
[2]; Case 16: relapsed after freezing and interferon, CO2 laser, then 1 tablet three times daily 5 days and twice daily 10 days, in one year
  relapse: no relapse occurred
[2]; all condyloma acuminatum cases
  evaluation by Chinese Ministry of Health and WHO criteria for condyloma acuminatum: all cases are considered as cure
[2]; two relapsed cases, then methyltestosterone treatment
  outcome of the two cases relapsed after operation and cytokine (interleukin II) treatment: cured; also recorded: healed the lesions

Source: patent publication US20040191311A1, “Use of methyltestosterone as a drug for treatment of human papilloma virus infections” (priority 2002, published 2004)
